Like-named read-outs stand apart in the source and are kept apart here.
Target: human Nav 1.8 (Homo sapiens, UniProt Q9Y5Y9)
Experiment: E-VIPR assay detecting and measuring Nav inhibition (HEK cells expressing truncated human Nav 1.8)
Assay type: cell-based
From the text: Sodium ion channels are voltage-dependent proteins that can be activated by inducing membrane voltage changes by applying electric fields. The electrical stimulation instrument and methods of use, referred to as E-VIPR, are described in International Publication No. WO 2002/008748 A3 and C.-J. Huang et al. Characterization of voltage-gated sodium channel blockers by electrical stimulation and fluorescence detection of membrane potential, 24 Nature Biotech. 439-46 (2006), both of which are incorporated by reference in their entirety. The instrument comprises a microtiter plate handler, an optical system for exciting the coumarin dye while simultaneously recording the coumarin and oxonol emissions, a waveform generator, a current- or voltage-controlled amplifier, and parallel electrode pairs that are inserted into assay plate wells. Under integrated computer control, this instrument passes user-programmed electrical stimulus protocols to cells within the wells of the microtiter plate.
16-20 hours prior to running the assay on E-VIPR, HEK cells expressing a truncated form of human Nav 1.8 with full channel activity were seeded into microtiter 384-well plates, pre-coated with matrigel, at a density of 25,000 cells per well. 2.5-5% KIR2.1 Bacmam virus was added to the final cell suspension before seeding into cell plates. HEK cells were grown in Dulbecco's Modified Eagle's Medium (DMEM) supplemented with 10% FBS (Fetal Bovine Serum, qualified; Sigma #F4135), 1% NEAA (Non-Essential Amino Acids, Gibco #11140), 1% HEPES (Gibco #15630), 1% Pen-Strep (Penicillin-Streptomycin; Gibco #15140) and 5 μg/ml Blasticidin (Gibco #R210-01). Cells were expanded in vented cap cell culture flasks, with 90-95% humidity and 5% CO2.
Human Serum (HS, Millipore #S1P1-01KL, or Sigma SLBR5469V and SLBR5470V as a 50%/50% mixture, for 25% assay final concentration)
Bath1 Buffer: • Sodium Chloride 160 mM (9.35 g/L), Potassium Chloride, 4.5 mM (0.335 g/L), Glucose 10 mM (1.8 g/L), Magnesium Chloride (Anhydrous) 1 mM (0.095 g/L), Calcium Chloride 2 mM (0.222 g/L), HEPES 10 mM (2.38 g/L) in water.
Na/TMA Cl Bath1 Buffer: • Sodium Chloride 96 mM (5.61 g/L), Potassium Chloride 4.5 mM (0.335 g/L), Tetramethylammonium (TMA)-Cl 64 mM (7.01 g/L), Glucose 10 mM (1.8 g/L), Magnesium Chloride (Anhydrous) 1 mM (0.095 g/L), Calcium Chloride 2 mM (0.222 g/L) HEPES 10 mM (2.38 g/L) in water.
Hexyl Dye Solution (2× concentration): • Bath1 Buffer containing 0.5% β-cyclodextrin (made fresh prior to each use, Sigma #C4767), 8 μM CC2-DMPE and 2 μM DiSBAC6(3). The solution was made by adding 10% Pluronic F127 stock equal to combined volumes of CC2-DMPE and DiSBAC6(3). The order of preparation was first mix Pluronic and CC2-DMPE, then add DiSBAC6(3), then while vortexing add Bath1/β-Cyclodextrin.
Compound Loading Buffer (2×concentration): Na/TMA Cl Bath1 Buffer containing HS (omitted in experiments run in the absence of human serum (HS)) 50%, VABSC-1 1 mM, BSA 0.2 mg/ml (in Bath-1), KCl 9 mM, DMSO 0.75%.
Assay Protocol (7 Key Steps): • 1) To reach the final concentration in each well, 400 nL of each compound was pre-spotted (in neat DMSO) into polypropylene compound plates at 250×desired final concentration from an intermediate stock concentration of 0.075 mM, in an 11 point dose response, 3-fold dilution, resulting in a top dose of 300 nM final concentration in the cell plate. Vehicle control (neat DMSO), and positive control (an established Nav1.8 inhibitor, 25 μM final in assay in DMSO) were added manually to the outermost columns of each plate respectively. The compound plate was backfilled with 45 μL per well of Compound Loading Buffer resulting in a 250 fold dilution of compound following a 1:1 transfer of compound into the cell plate (see Step 6). Final DMSO concentration for all wells in the assay was 0.625% (0.75% DMSO was supplemented to the Compound Loading Buffer for a final DMSO concentration of 0.625%). […]

[1] = in the Presence of Human Serum in the E-VIPR Assay
[2] = in the Presence of Human Serum in the E-VIPR Assay, read-out: IC50

human Nav 1.8, sequence (Q9Y5Y9 whole entry, looked up, the tested form may be a part): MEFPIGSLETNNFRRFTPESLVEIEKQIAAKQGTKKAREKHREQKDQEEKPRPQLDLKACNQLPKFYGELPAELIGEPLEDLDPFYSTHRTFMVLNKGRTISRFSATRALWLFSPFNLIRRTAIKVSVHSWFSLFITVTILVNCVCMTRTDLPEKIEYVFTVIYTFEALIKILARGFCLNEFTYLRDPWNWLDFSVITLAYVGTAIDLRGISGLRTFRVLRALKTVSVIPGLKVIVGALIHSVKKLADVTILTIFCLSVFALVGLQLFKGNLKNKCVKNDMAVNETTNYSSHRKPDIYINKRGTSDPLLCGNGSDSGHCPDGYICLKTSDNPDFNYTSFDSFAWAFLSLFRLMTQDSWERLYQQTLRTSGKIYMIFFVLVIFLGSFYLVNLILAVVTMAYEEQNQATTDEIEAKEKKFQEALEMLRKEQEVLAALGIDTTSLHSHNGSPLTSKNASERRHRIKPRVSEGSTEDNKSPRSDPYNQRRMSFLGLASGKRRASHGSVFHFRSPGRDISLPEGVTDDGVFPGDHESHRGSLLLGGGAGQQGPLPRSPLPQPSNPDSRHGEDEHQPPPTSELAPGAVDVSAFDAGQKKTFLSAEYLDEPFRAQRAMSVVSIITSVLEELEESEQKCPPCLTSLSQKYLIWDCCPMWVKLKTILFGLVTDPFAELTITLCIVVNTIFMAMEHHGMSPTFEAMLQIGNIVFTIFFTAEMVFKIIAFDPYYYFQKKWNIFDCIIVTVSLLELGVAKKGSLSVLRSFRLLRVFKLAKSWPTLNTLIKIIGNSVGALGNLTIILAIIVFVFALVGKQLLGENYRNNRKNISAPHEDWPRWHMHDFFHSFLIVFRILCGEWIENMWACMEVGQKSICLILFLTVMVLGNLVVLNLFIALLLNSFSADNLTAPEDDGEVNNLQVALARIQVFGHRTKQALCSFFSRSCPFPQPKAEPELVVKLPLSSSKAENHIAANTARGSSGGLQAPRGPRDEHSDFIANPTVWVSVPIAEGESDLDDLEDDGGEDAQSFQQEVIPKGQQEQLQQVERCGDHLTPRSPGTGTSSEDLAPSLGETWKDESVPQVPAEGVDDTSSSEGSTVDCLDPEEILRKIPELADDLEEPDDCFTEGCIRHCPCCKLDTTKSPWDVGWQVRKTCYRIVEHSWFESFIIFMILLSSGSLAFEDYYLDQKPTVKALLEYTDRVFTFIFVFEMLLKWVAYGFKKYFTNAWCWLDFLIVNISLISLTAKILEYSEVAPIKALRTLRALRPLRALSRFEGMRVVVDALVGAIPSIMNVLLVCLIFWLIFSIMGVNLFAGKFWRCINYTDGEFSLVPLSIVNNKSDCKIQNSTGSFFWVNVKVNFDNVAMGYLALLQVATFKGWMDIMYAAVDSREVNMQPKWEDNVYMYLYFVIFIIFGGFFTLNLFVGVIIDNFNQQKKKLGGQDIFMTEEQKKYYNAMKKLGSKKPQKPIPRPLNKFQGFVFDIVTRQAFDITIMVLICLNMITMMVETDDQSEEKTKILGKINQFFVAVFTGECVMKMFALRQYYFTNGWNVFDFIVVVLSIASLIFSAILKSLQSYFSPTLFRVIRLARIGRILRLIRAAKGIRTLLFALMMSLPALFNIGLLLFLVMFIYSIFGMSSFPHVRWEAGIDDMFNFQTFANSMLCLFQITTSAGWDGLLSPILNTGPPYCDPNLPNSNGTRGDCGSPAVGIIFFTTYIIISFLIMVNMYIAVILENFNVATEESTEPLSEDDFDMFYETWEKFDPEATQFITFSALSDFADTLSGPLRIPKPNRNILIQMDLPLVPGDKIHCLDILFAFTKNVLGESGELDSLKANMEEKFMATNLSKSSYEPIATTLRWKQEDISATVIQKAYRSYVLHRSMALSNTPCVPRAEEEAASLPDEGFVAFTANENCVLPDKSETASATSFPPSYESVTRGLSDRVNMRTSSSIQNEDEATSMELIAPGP

SMILES | IC50 [2] | other results
COc1c([C@@H]2[C@@H](C(=O)Nc3ccnc(C(N)=O)c3)O[C@@](C)(C(F)(F)F)[C@@H]2C)ccc(F)c1F (racemic) [Compound 33, rac-(2S,3R,4R,5R)-4-[[3-(3,4-difluoro-2-methoxy-phenyl)-4,5-dimethyl-5-(trifluoromethyl)tetrahydrofuran-2-carbonyl]amino]pyridine-2-carboxamide] | – | IC50 [1]: 0.1 to 1 µM
COc1c([C@@H]2[C@@H](C(=O)Nc3ccnc(C(N)=O)c3)O[C@@](C)(C(F)(F)F)[C@H]2C)ccc(F)c1F (racemic) [Compound 34, rac-(2S,3R,4S,5R)-4-[[3-(3,4-difluoro-2-methoxy-phenyl)-4,5-dimethyl-5-(trifluoromethyl)tetrahydrofuran-2-carbonyl]amino]pyridine-2-carboxamide] | – | IC50 [1]: > 1 µM
COc1c([C@@H]2[C@@H](C)[C@](C)(C(F)(F)F)O[C@H]2C(=O)Nc2ccnc(C(N)=O)c2)ccc(F)c1F (racemic) [Compound 35, rac-(2R,3S,4R,5R)-4-[[3-(3,4-difluoro-2-methoxy-phenyl)-4,5-dimethyl-5-(trifluoromethyl)tetrahydrofuran-2-carbonyl]amino]pyridine-2-carboxamide] | – | IC50 [1]: 0.1 to 1 µM
COc1cccc(F)c1[C@@H]1C[C@](C)(C(F)(F)F)O[C@H]1C(=O)Nc1ccnc(C(N)=O)c1 (racemic) [Compound 79, rac-(2R,3S,5R)-4-[[3-(2-fluoro-6-methoxy-phenyl)-5-methyl-5-(trifluoromethyl)tetrahydrofuran-2-carbonyl]amino]pyridine-2-carboxamide] | > 1 µM | –
COc1c([C@H]2[C@@H](C(=O)Nc3ccnc(C(N)=O)c3)OC(C)(C)[C@@H]2C)ccc(F)c1F (racemic) [Compound 100, rac-(2S,3S,4R)-4-[[3-(3,4-difluoro-2-methoxy-phenyl)-4,5,5-trimethyl-tetrahydrofuran-2-carbonyl]amino]pyridine-2-carboxamide] | > 1 µM | –
C[C@H]1[C@@H](c2ccc(F)c(F)c2OC(F)F)[C@H](C(=O)Nc2ccnc(C(N)=O)c2)O[C@@]1(C)C(F)(F)F (racemic) [Compound 115, rac-(2R,3S,4S,5R)-4-[[3-[2-(difluoromethoxy)-3,4-difluoro-phenyl]-4,5-dimethyl-5-(trifluoromethyl)tetrahydrofuran-2-carbonyl]amino]pyridine-2-carboxamide] | < 0.01 µM | –
CC[C@H]1[C@@H](c2ccc(F)c(F)c2OC)[C@H](C(=O)Nc2ccnc(C(N)=O)c2)O[C@@]1(C)C(F)(F)F (racemic) [Compound 116, rac-(2R,3S,4S,5R)-4-[[3-(3,4-difluoro-2-methoxy-phenyl)-4-ethyl-5-methyl-5-(trifluoromethyl)tetrahydrofuran-2-carbonyl]amino]pyridine-2-carboxamide] | < 0.01 µM | –
C[C@@H]1[C@H](c2ccc(F)cc2OC(F)F)[C@@H](C(=O)Nc2ccnc(C(N)=O)c2)O[C@@]1(C)C(F)(F)F (racemic) [compound 28] | 0.01 to 0.1 µM | –
COc1cc(C(F)(F)F)ncc1[C@H]1[C@H](C(=O)Nc2ccnc(C(N)=O)c2)O[C@@](C)(C(F)(F)F)[C@H]1C (racemic) [compound 139] | – | IC50 (in the Absence of Human Serum in the E-VIPR Assay, read-out: IC50): > 1 µM
COc1c([C@H]2C[C@@](C)(C(F)(F)F)O[C@@H]2C(=O)Nc2ccnc(C(N)=O)c2)ccc(F)c1Cl (relative stereo) [Compound 20, rel-(2S,3R,5S)-4-[[3-(3-chloro-4-fluoro-2-methoxy-phenyl)-5-methyl-5-(trifluoromethyl)tetrahydrofuran-2-carbonyl]amino]pyridine-2-carboxamide] | > 1 µM | –
COc1c([C@H]2C[C@@](C)(C(F)(F)F)O[C@@H]2C(=O)Nc2ccnc(C(N)=O)c2)ccc(F)c1Cl (relative stereo) [Compound 22, rel-(2R,3S,5R)-4-[[3-(3-chloro-4-fluoro-2-methoxy-phenyl)-5-methyl-5-(trifluoromethyl)tetrahydrofuran-2-carbonyl]amino]pyridine-2-carboxamide] | 0.01 to 0.1 µM | –
COc1c([C@@H]2[C@H](C)[C@H](C(F)(F)F)O[C@H]2C(=O)Nc2ccnc(C(N)=O)c2)ccc(F)c1F (relative stereo) [Compound 24, rel-(2R,3S,4S,5R)-4-[[3-(3,4-difluoro-2-methoxy-phenyl)-4-methyl-5-(trifluoromethyl)tetrahydrofuran-2-carbonyl]amino]pyridine-2-carboxamide] | > 1 µM | –
COc1c([C@@H]2[C@H](C)[C@H](C(F)(F)F)O[C@H]2C(=O)Nc2ccnc(C(N)=O)c2)ccc(F)c1F (relative stereo) [Compound 25, rel-(2S,3R,4R,5S)-4-[[3-(3,4-difluoro-2-methoxy-phenyl)-4-methyl-5-(trifluoromethyl)tetrahydrofuran-2-carbonyl]amino]pyridine-2-carboxamide] | < 0.01 µM | –
COc1c([C@@H]2C[C@](C)(C(F)(F)F)O[C@H]2C(=O)Nc2cc[n+]([O-])c(C(N)=O)c2)ccc(F)c1F (relative stereo) [Compound 54, rel-(2R,3S,5R)-4-[[3-(3,4-difluoro-2-methoxy-phenyl)-5-methyl-5-(trifluoromethyl)tetrahydrofuran-2-carbonyl]amino]-1-oxido-pyridin-1-ium-2-carboxamide] | 0.1 to 1 µM | –
COc1cc(F)ccc1[C@@H]1C[C@](C)(C(F)(F)F)O[C@@H]1C(=O)Nc1ccnc(C(N)=O)c1 (relative stereo) [Compound 70, rel-(2S,3S,5R)-4-[[3-(4-fluoro-2-methoxy-phenyl)-5-methyl-5-(trifluoromethyl)tetrahydrofuran-2-carbonyl]amino]pyridine-2-carboxamide] | > 1 µM | –
COc1cc(F)ccc1[C@H]1[C@H](C(=O)Nc2ccnc(C(N)=O)c2)O[C@@](C)(C(F)(F)F)[C@H]1C (single isomer, unassigned) [Compound 3a] | > 1 µM | –
COc1cc(F)ccc1[C@@H]1[C@@H](C(=O)Nc2ccnc(C(N)=O)c2)O[C@](C)(C(F)(F)F)[C@@H]1C (single isomer, unassigned) [Compound 3b] | < 0.01 µM | –
C[C@H]1[C@@H](c2ccc(F)c(F)c2OC(F)F)[C@H](C(=O)Nc2ccc(F)c(C(N)=O)c2)O[C@@]1(C)C(F)(F)F (single isomer, unassigned) [Compound 14] | > 1 µM | –
C[C@H]1[C@@H](c2ccc(F)c(F)c2OC(F)F)[C@H](C(=O)Nc2ccc(F)c(C(N)=O)c2)O[C@@]1(C)C(F)(F)F (single isomer, unassigned) [Compound 15] | < 0.01 µM | –
CNC(=O)c1cc(NC(=O)[C@H]2O[C@](C)(C(F)(F)F)[C@H](C)[C@@H]2c2ccc(F)cc2OC(F)F)ccn1 (single isomer, unassigned) [Compound 29] | > 1 µM | –
CNC(=O)c1cc(NC(=O)[C@@H]2O[C@@](C)(C(F)(F)F)[C@@H](C)[C@H]2c2ccc(F)cc2OC(F)F)ccn1 (single isomer, unassigned) [Compound 30] | 0.1 to 1 µM | –
C[C@@H]1[C@H](c2ccc(F)cc2OC(F)F)[C@@H](C(=O)Nc2ccc(F)c(C(N)=O)c2)O[C@]1(C)C(F)(F)F (single isomer, unassigned) [Compound 31] | > 1 µM | –
C[C@H]1[C@@H](c2ccc(F)cc2OC(F)F)[C@H](C(=O)Nc2ccc(F)c(C(N)=O)c2)O[C@@]1(C)C(F)(F)F (single isomer, unassigned) [Compound 32] | < 0.01 µM | –
